Assay results as given in paper PMC9586930, “Molecular insights into the distinct signaling duration for the peptide-induced PTH1R activation” (Nature Communications, 2022).
Changes are numbered by the printed parent chain.

Tests used:
Type in all cases: cell-based
Conditions in all cases: for ΔpEC50±SEM: relative to WT, n = 3 in triplicate; for ΔpEC50±SEM / Span±SEM: mean ± SEM; for Span±SEM: window between maximal response (Emax) and vehicle, n = 3
PTH1R L174A mutant = target: T1, PTH1R L174A mutant (Homo sapiens, UniProt Q03431, L174A); assay: cAMP accumulation assay (GloSensor), PTH1R L174A
T1 construct: a flag-tag was fused to the N terminal of full-length PTH1R (WT or mutant); expressed in transfected cells; host or cells: HEK293T
T1 sequence (Q03431 27-593 L174A): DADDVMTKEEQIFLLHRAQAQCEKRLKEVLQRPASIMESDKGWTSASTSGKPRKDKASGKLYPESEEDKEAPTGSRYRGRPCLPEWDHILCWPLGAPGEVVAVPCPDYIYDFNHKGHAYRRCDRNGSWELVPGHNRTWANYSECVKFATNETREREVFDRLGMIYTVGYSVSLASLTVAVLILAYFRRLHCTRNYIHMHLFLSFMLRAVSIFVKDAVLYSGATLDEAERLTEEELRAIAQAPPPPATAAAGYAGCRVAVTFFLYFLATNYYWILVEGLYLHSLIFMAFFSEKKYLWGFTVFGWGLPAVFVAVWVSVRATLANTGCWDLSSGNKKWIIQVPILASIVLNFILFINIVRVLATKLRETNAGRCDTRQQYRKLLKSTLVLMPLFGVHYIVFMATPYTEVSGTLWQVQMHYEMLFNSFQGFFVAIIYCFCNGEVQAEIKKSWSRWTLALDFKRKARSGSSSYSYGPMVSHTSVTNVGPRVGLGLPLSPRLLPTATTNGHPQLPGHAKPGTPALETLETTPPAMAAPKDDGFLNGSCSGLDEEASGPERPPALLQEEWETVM
Experimental: (§1) Human embryonic kidney 293 T (HEK293T, ATCC: CRL-1573) cells were transfected with a plasmid mixture consisting of pcDNA3.1-flag-PTH1R (WT or mutants) and the cAMP biosensor GloSensor-22F (Promega) at a ratio of 2:1 (see Supplementary Table 7 for a list of primers used in this study). After 24 h, transfected cells were plated onto a 384-well plate, which was treated with cell adherent reagent (Applygen) in advance. After another 12 h, cells were treated with Hank’s balanced salt solution for starvation and then incubated in CO2-independent media containing 4% GloSensor cAMP Reagent (Promega) at a volume of 5 μl per well and incubated for 20 min at RT before measurements for baseline luminescence (Spark Multimode microplate reader, TECAN). Next, test ligands were added at different concentrations from 10^−6 to 10^−13 M before second measurement. Finally, data were normalized to 100% of the maximal PTH (1-34) response for WT PTH1R using a sigmoidal dose-response in GraphPad Prism.
(§2) Statistical analyses were performed on at least three individual datasets and analysed using GraphPad Prism software. Bars represent differences in the calculated agonist potency (pEC50) and maximum agonist response (Emax) for each mutant relative to the WT receptor. Data are mean± s.e.m. from at least three independent experiments, performed in triplicates. ns, not significant, ^nsP > 0.01; ^*P < 0.01; ^**P < 0.001; ^***P < 0.0001 (one-way analysis of variance (ANOVA) followed by Dunnett’s test, compared with the response of the WT). For dose-response experiments, data were normalized and analyzed using nonlinear curve fitting for the log (agonist) versus response (three parameters) curves.

PTH1R L244A mutant = target: T2, PTH1R L244A mutant (Homo sapiens, UniProt Q03431, L244A); assay: cAMP accumulation assay (GloSensor), PTH1R L244A
T2 construct: a flag-tag was fused to the N terminal of full-length PTH1R (WT or mutant); expressed in transfected cells; host or cells: HEK293T
T2 sequence (Q03431 27-593 L244A): T1 sequence (Q03431 27-593 L174A) with A148L, L218A
Experimental: as §1, §2

PTH1R V285A mutant = target: T3, PTH1R V285A mutant (Homo sapiens, UniProt Q03431, V285A); assay: cAMP accumulation assay (GloSensor), PTH1R V285A
T3 construct: a flag-tag was fused to the N terminal of full-length PTH1R (WT or mutant); expressed in transfected cells; host or cells: HEK293T
T3 sequence (Q03431 27-593 V285A): T1 sequence (Q03431 27-593 L174A) with A148L, V259A
Experimental: as §1, §2

span (from the WT) (PTH1R L174A mutant; PTH1R L1741.26A, replicate 1) | ΔpEC50 (from the WT) (PTH1R L174A mutant; PTH1R L1741.26A, replicate 1) | span (from the WT) (PTH1R L174A mutant; PTH1R L1741.26A, replicate 2) | ΔpEC50 (from the WT) (PTH1R L174A mutant; PTH1R L1741.26A, replicate 2) | span (from the WT) (PTH1R L174A mutant; PTH1R L1741.26A, replicate 3) | ΔpEC50 (from the WT) (PTH1R L174A mutant; PTH1R L1741.26A, replicate 3) | ΔpEC50±SEM (PTH1R L174A mutant) | ΔpEC50 (from the WT) (PTH1R L174A mutant; replicate 1) | ΔpEC50 (from the WT) (PTH1R L174A mutant; replicate 2) | ΔpEC50 (from the WT) (PTH1R L174A mutant; replicate 3) | Span±SEM (PTH1R L174A mutant) | span (from the WT) (PTH1R L244A mutant; PTH1R L2442.71A, replicate 1) | ΔpEC50 (from the WT) (PTH1R L244A mutant; PTH1R L2442.71A, replicate 1) | span (from the WT) (PTH1R L244A mutant; PTH1R L2442.71A, replicate 2) | ΔpEC50 (from the WT) (PTH1R L244A mutant; PTH1R L2442.71A, replicate 2) | span (from the WT) (PTH1R L244A mutant; PTH1R L2442.71A, replicate 3) | ΔpEC50 (from the WT) (PTH1R L244A mutant; PTH1R L2442.71A, replicate 3) | ΔpEC50±SEM (PTH1R L244A mutant) | ΔpEC50 (from the WT) (PTH1R L244A mutant; replicate 1) | ΔpEC50 (from the WT) (PTH1R L244A mutant; replicate 2) | Substance | also measured
93.64 | -0.262 | 87.77 | -0.161 | 98.4 | -0.17 | -0.20±0.03 | -0.262 | -0.161 | -0.17 | 93.27±3.07 | 131 | -0.382 | 190.8 | -0.346 | 179.4 | -0.43 | -0.39±0.02 | -0.382 | -0.346 | H-AVAEIQLMHQRAKWIQDARRRAFLHKLIAEIHTAEI-OH [LA-PTH, long-acting PTH analog, modified PTH/PTHrP hybrid] | ΔpEC50 (from the WT) (PTH1R L244A mutant; replicate 3): -0.43; Span±SEM (PTH1R L244A mutant): 167.07±18.33; span (from the WT) (PTH1R V285A mutant; PTH1R V2853.33A, replicate 1): 160.1; ΔpEC50 (from the WT) (PTH1R V285A mutant; PTH1R V2853.33A, replicate 1): -0.326; span (from the WT) (PTH1R V285A mutant; PTH1R V2853.33A, replicate 2): 211.8; ΔpEC50 (from the WT) (PTH1R V285A mutant; PTH1R V2853.33A, replicate 2): -0.5; span (from the WT) (PTH1R V285A mutant; PTH1R V2853.33A, replicate 3): 140.2; ΔpEC50 (from the WT) (PTH1R V285A mutant; PTH1R V2853.33A, replicate 3): -0.433; ΔpEC50±SEM (PTH1R V285A mutant): -0.42±0.05; ΔpEC50 (from the WT) (PTH1R V285A mutant; replicate 1): -0.326; ΔpEC50 (from the WT) (PTH1R V285A mutant; replicate 2): -0.5; ΔpEC50 (from the WT) (PTH1R V285A mutant; replicate 3): -0.433; Span±SEM (PTH1R V285A mutant): 170.70±21.34
90.7 | -0.41 | 103.2 | -0.706 | 154.9 | -0.481 | -0.53±0.09 | -0.41 | -0.706 | -0.481 | 116.27±19.65 | 138.7 | -0.566 | 168.7 | -0.398 | 186.9 | -0.464 | -0.48±0.05 | -0.566 | -0.398 | H-SVSEIQLMHNLGKHLNSMERVEWLRKKLQDVHNF-OH [PTH, Teriparatide, human PTH 1-34, long-acting peptide agonist of PTH1R] | ΔpEC50 (from the WT) (PTH1R L244A mutant; replicate 3): -0.464; Span±SEM (PTH1R L244A mutant): 150.17±18.04; span (from the WT) (PTH1R V285A mutant; PTH1R V2853.33A, replicate 1): 118.6; ΔpEC50 (from the WT) (PTH1R V285A mutant; PTH1R V2853.33A, replicate 1): -0.181; span (from the WT) (PTH1R V285A mutant; PTH1R V2853.33A, replicate 2): 150.8; ΔpEC50 (from the WT) (PTH1R V285A mutant; PTH1R V2853.33A, replicate 2): -0.072; span (from the WT) (PTH1R V285A mutant; PTH1R V2853.33A, replicate 3): 181.1; ΔpEC50 (from the WT) (PTH1R V285A mutant; PTH1R V2853.33A, replicate 3): -0.211; ΔpEC50±SEM (PTH1R V285A mutant): -0.15±0.04; ΔpEC50 (from the WT) (PTH1R V285A mutant; replicate 1): -0.181; ΔpEC50 (from the WT) (PTH1R V285A mutant; replicate 2): -0.072; ΔpEC50 (from the WT) (PTH1R V285A mutant; replicate 3): -0.211; Span±SEM (PTH1R V285A mutant): 152.43±15.43

Substance | span (from the WT) (PTH1R L174A mutant; PTH1R L1741.26A, replicate 1) | ΔpEC50 (from the WT) (PTH1R L174A mutant; PTH1R L1741.26A, replicate 1) | span (from the WT) (PTH1R L174A mutant; PTH1R L1741.26A, replicate 2) | ΔpEC50 (from the WT) (PTH1R L174A mutant; PTH1R L1741.26A, replicate 2) | span (from the WT) (PTH1R L174A mutant; PTH1R L1741.26A, replicate 3) | ΔpEC50 (from the WT) (PTH1R L174A mutant; PTH1R L1741.26A, replicate 3) | ΔpEC50±SEM (PTH1R L174A mutant) | ΔpEC50 (from the WT) (PTH1R L174A mutant; replicate 1) | ΔpEC50 (from the WT) (PTH1R L174A mutant; replicate 2) | ΔpEC50 (from the WT) (PTH1R L174A mutant; replicate 3) | Span±SEM (PTH1R L174A mutant) | span (from the WT) (PTH1R L244A mutant; PTH1R L2442.71A, replicate 1) | ΔpEC50 (from the WT) (PTH1R L244A mutant; PTH1R L2442.71A, replicate 1) | span (from the WT) (PTH1R L244A mutant; PTH1R L2442.71A, replicate 2) | ΔpEC50 (from the WT) (PTH1R L244A mutant; PTH1R L2442.71A, replicate 2) | span (from the WT) (PTH1R L244A mutant; PTH1R L2442.71A, replicate 3) | ΔpEC50 (from the WT) (PTH1R L244A mutant; PTH1R L2442.71A, replicate 3) | ΔpEC50±SEM (PTH1R L244A mutant) | ΔpEC50 (from the WT) (PTH1R L244A mutant; replicate 1) | ΔpEC50 (from the WT) (PTH1R L244A mutant; replicate 2) | also measured
H-AVSEHQLLHDKGKSIQDLRRRELLEKLL-{Aib}-KLHTA-NH2 [ABL, Abaloparatide, an analog of PTHrP, short-acting PTH1R agonist] | 94.46 | -0.37 | 117 | -0.52 | 129.9 | -0.682 | -0.52±0.09 | -0.37 | -0.52 | -0.682 | 113.79±10.36 | 180 | -2.593 | 247.7 | -2.562 | 245.8 | -2.458 | -2.54±0.04 | -2.593 | -2.562 | ΔpEC50 (from the WT) (PTH1R L244A mutant; replicate 3): -2.458; Span±SEM (PTH1R L244A mutant): 224.50±22.26; span (from the WT) (PTH1R V285A mutant; PTH1R V2853.33A, replicate 1): 158.8; ΔpEC50 (from the WT) (PTH1R V285A mutant; PTH1R V2853.33A, replicate 1): -1.921; span (from the WT) (PTH1R V285A mutant; PTH1R V2853.33A, replicate 2): 185.5; ΔpEC50 (from the WT) (PTH1R V285A mutant; PTH1R V2853.33A, replicate 2): -2.009; span (from the WT) (PTH1R V285A mutant; PTH1R V2853.33A, replicate 3): 175.8; ΔpEC50 (from the WT) (PTH1R V285A mutant; PTH1R V2853.33A, replicate 3): -2.246; ΔpEC50±SEM (PTH1R V285A mutant): -2.06±0.1; ΔpEC50 (from the WT) (PTH1R V285A mutant; replicate 1): -1.921; ΔpEC50 (from the WT) (PTH1R V285A mutant; replicate 2): -2.009; ΔpEC50 (from the WT) (PTH1R V285A mutant; replicate 3): -2.246; Span±SEM (PTH1R V285A mutant): 173.37±7.80
